Tests used:
Test in all cases: KINOMEscan
Assay type in all cases: binding
Settings in all cases: read-out: Remaining enzyme activity
[1] = biological target: T1, EPHA3 (Homo sapiens, UniProt P29320)
T1 construct: purchased Ambit (DiscoverX) KINOMEscan; Cerep
How it was run: (§1)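 Kinase preparations were T7 phage fusions produced in E. coli (32 °C until lysis, lysates clarified) or HEK-293-expressed proteins with DNA tags. These were mixed with immobilized active-site ligand and SC81458 at 10 μM. The amount of kinase in eluates was determined by qPCR.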

[2] = biological target: T2, CAMKK2 (Homo sapiens, UniProt Q96RR4)
T2 construct: purchased Ambit (DiscoverX) KINOMEscan; Cerep
How it was run: as §1

[3] = biological target: T3, PLK2 (Homo sapiens, UniProt Q9NYY3)
T3 construct: purchased Ambit (DiscoverX) KINOMEscan; Cerep
How it was run: as §1

[4] = biological target: T4, PIK3Cg (Homo sapiens, UniProt P48736)
T4 construct: purchased Ambit (DiscoverX) KINOMEscan; Cerep
T4 sequence (P48736 whole entry): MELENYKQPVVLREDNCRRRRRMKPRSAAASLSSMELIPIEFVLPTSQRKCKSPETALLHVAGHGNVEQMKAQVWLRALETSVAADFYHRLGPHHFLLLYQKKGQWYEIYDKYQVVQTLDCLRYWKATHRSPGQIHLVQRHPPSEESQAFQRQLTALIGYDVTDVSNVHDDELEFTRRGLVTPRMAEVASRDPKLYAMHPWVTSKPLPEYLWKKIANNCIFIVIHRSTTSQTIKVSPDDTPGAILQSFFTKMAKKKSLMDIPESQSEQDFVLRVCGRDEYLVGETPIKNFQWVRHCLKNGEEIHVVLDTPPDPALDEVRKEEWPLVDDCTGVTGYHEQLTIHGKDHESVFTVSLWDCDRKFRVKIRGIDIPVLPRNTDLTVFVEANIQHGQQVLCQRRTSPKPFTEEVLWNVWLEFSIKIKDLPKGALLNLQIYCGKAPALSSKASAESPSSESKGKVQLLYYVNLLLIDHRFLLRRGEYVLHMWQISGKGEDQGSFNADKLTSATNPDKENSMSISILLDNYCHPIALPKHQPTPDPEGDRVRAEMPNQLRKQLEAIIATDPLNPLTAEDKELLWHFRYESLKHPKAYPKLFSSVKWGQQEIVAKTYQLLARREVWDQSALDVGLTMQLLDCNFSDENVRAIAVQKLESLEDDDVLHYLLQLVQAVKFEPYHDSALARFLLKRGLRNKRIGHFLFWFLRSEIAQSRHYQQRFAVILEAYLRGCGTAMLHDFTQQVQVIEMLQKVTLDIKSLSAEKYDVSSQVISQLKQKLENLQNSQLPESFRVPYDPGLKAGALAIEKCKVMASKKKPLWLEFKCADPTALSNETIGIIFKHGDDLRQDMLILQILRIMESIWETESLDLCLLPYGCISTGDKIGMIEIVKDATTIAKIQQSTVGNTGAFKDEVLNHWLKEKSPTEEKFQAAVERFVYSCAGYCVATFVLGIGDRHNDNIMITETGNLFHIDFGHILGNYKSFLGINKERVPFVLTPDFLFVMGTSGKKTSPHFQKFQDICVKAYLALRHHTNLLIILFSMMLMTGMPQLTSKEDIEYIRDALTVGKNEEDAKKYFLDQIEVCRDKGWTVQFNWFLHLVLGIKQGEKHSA
How it was run: as §1

[5] = biological target: T5, NLK (Homo sapiens, UniProt Q9UBE8)
T5 construct: purchased Ambit (DiscoverX) KINOMEscan; Cerep
How it was run: as §1

[6] = biological target: T6, CSNK1a1l (Homo sapiens, UniProt Q8N752)
T6 construct: purchased Ambit (DiscoverX) KINOMEscan; Cerep
How it was run: as §1

[7] = biological target: T7, DYRK1b (Homo sapiens, UniProt Q9Y463)
T7 construct: purchased Ambit (DiscoverX) KINOMEscan; Cerep
T7 sequence (Q9Y463 whole entry): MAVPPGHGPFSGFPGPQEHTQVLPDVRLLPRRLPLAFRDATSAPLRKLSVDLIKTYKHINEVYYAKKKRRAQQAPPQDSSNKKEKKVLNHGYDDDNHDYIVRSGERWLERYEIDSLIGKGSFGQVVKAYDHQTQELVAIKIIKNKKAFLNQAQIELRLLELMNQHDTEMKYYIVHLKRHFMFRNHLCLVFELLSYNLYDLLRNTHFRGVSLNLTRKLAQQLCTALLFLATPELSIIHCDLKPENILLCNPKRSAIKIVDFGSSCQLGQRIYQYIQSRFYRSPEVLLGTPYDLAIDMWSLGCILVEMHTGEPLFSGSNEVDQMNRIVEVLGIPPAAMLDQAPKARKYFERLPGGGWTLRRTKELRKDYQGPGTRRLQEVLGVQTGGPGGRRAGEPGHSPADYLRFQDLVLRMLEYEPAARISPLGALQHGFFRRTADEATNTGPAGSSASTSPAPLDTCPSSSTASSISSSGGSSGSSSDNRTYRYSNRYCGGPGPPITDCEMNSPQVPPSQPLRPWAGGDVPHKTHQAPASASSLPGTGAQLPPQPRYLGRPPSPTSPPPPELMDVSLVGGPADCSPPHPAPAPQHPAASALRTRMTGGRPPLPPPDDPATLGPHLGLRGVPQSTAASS
How it was run: as §1

[8] = biological target: T8, ULK3 (Homo sapiens, UniProt Q6PHR2)
T8 construct: purchased Ambit (DiscoverX) KINOMEscan; Cerep
How it was run: as §1

[9] = biological target: T9, RIOK3 (Homo sapiens, UniProt O14730)
T9 construct: purchased Ambit (DiscoverX) KINOMEscan; Cerep
How it was run: as §1

[10] = biological target: T10, EPHA7 (Homo sapiens, UniProt Q15375)
T10 construct: purchased Ambit (DiscoverX) KINOMEscan; Cerep
How it was run: as §1

[11] = biological target: T11, MKNK1 (Homo sapiens, UniProt Q9BUB5)
T11 construct: purchased Ambit (DiscoverX) KINOMEscan; Cerep
How it was run: as §1

[12] = biological target: T12, BMPR1a (Homo sapiens, UniProt P36894)
T12 construct: purchased Ambit (DiscoverX) KINOMEscan; Cerep
How it was run: as §1

[13] = biological target: T13, CDKL3 (Homo sapiens, UniProt Q8IVW4)
T13 construct: purchased Ambit (DiscoverX) KINOMEscan; Cerep
T13 sequence (Q8IVW4 whole entry): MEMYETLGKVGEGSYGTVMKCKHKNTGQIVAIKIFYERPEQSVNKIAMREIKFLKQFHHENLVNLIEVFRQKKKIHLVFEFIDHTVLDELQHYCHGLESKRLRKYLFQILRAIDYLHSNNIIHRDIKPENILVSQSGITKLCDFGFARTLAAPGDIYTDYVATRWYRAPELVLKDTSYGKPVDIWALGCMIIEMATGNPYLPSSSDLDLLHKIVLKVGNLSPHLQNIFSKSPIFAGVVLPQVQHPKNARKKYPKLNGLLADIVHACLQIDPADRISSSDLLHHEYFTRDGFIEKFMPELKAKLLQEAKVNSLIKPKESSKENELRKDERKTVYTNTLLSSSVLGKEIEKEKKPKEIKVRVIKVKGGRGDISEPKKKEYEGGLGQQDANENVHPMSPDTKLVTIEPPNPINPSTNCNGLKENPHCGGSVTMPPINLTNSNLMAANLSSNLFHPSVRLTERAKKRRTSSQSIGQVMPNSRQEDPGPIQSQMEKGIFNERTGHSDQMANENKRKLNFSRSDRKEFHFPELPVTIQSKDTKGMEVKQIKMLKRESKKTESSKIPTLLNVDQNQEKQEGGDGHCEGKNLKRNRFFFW
How it was run: as §1

[14] = biological target: T14, DRAK2 (Homo sapiens, UniProt O94768)
T14 construct: purchased Ambit (DiscoverX) KINOMEscan; Cerep
How it was run: as §1

[15] = biological target: T15, FGR (Homo sapiens, UniProt P09769)
T15 construct: purchased Ambit (DiscoverX) KINOMEscan; Cerep
How it was run: as §1

[16] = biological target: T16, EGFR(L747-E752del, P753S) (Homo sapiens, UniProt P00533, DEL747-752/P753S)
T16 construct: purchased Ambit (DiscoverX) KINOMEscan; Cerep
How it was run: as §1

[17] = biological target: T17, MAP4K3 (Homo sapiens, UniProt Q8IVH8)
T17 construct: purchased Ambit (DiscoverX) KINOMEscan; Cerep
How it was run: as §1

[18] = biological target: T18, NEK7 (Homo sapiens, UniProt Q8TDX7)
T18 construct: purchased Ambit (DiscoverX) KINOMEscan; Cerep
How it was run: as §1

[19] = biological target: T19, TBK1 (Homo sapiens, UniProt Q9UHD2)
T19 construct: purchased Ambit (DiscoverX) KINOMEscan; Cerep
How it was run: as §1

[20] = biological target: T20, IKK-alpha (Homo sapiens, UniProt O15111)
T20 construct: purchased Ambit (DiscoverX) KINOMEscan; Cerep
How it was run: as §1

[21] = biological target: T21, EGFR(L747-E749del, A750P) (Homo sapiens, UniProt P00533, A750P/DEL747-749)
T21 construct: purchased Ambit (DiscoverX) KINOMEscan; Cerep
How it was run: as §1

[22] = biological target: T22, MLK1 (Homo sapiens, UniProt P80192)
T22 construct: purchased Ambit (DiscoverX) KINOMEscan; Cerep
How it was run: as §1

[23] = biological target: T23, ERK3 (Homo sapiens, UniProt Q16659)
T23 construct: purchased Ambit (DiscoverX) KINOMEscan; Cerep
T23 sequence (Q16659 whole entry): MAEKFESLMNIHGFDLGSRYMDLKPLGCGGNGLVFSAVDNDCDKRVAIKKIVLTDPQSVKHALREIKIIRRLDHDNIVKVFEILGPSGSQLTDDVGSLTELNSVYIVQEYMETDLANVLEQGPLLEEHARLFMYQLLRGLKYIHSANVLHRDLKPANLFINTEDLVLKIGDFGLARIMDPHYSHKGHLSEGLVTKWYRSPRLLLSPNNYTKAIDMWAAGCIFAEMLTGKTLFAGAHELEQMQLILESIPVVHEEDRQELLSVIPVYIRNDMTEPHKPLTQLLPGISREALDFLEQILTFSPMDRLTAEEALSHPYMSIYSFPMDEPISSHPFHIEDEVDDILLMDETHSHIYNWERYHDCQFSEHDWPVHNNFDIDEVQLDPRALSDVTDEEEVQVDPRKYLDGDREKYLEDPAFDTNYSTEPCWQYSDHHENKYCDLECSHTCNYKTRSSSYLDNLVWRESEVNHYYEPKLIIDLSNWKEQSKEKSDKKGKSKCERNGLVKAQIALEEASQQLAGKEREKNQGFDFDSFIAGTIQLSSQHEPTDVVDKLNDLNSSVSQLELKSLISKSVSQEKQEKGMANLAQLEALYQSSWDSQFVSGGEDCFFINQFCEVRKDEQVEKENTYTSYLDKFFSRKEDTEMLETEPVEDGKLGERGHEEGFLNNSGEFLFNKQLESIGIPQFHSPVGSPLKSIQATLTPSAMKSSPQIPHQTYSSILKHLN
How it was run: as §1

[24] = biological target: T24, PFTAIRE2 (Homo sapiens, UniProt Q96Q40)
T24 construct: purchased Ambit (DiscoverX) KINOMEscan; Cerep
T24 sequence (Q96Q40 whole entry): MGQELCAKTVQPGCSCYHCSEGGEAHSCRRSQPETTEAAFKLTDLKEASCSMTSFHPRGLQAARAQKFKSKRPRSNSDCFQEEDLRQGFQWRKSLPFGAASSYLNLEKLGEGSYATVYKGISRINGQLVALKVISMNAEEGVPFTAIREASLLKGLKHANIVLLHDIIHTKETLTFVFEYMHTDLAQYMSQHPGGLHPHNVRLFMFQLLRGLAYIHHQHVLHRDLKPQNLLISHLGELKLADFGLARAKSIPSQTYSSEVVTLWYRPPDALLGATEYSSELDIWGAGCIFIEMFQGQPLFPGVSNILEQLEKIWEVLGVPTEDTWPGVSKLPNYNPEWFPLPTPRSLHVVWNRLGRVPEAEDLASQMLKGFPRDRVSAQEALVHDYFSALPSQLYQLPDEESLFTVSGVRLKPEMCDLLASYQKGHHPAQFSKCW
How it was run: as §1

[25] = biological target: T25, ERK2 (Homo sapiens, UniProt P28482)
T25 construct: purchased Ambit (DiscoverX) KINOMEscan; Cerep
How it was run: as §1

[26] = biological target: T26, RIOK1 (Homo sapiens, UniProt Q9BRS2)
T26 construct: purchased Ambit (DiscoverX) KINOMEscan; Cerep
How it was run: as §1

[27] = biological target: T27, PIK3Cb (Homo sapiens, UniProt P42338)
T27 construct: purchased Ambit (DiscoverX) KINOMEscan; Cerep
T27 sequence (P42338 whole entry): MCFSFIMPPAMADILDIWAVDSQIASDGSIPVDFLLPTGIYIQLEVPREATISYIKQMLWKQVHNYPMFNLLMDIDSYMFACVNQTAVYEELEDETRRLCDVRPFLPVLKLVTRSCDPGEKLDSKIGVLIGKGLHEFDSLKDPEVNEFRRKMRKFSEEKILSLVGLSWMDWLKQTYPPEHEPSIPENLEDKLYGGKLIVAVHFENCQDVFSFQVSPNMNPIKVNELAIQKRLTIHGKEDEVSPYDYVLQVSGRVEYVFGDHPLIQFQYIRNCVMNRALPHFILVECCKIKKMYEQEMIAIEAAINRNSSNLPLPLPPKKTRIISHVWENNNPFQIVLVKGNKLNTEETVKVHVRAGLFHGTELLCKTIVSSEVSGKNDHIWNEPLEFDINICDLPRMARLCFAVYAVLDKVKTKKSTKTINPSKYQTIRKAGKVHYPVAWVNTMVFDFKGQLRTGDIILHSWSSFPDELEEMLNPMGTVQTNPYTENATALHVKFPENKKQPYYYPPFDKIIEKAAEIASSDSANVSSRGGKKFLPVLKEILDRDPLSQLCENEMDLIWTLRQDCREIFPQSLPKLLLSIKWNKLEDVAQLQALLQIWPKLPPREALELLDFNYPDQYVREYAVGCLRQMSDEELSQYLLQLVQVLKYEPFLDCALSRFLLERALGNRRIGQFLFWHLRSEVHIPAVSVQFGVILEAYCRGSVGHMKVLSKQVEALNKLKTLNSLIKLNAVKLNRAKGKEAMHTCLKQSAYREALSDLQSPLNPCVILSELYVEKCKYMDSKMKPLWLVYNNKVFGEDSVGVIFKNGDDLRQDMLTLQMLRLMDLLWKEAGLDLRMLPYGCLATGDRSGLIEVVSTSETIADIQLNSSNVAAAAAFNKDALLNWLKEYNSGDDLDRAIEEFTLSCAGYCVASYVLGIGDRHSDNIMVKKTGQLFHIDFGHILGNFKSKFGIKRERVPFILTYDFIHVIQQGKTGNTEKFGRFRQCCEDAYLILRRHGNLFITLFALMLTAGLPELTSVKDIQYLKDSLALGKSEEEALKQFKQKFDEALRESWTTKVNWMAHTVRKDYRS
How it was run: as §1

[28] = biological target: T28, LKB1 (Homo sapiens, UniProt Q15831)
T28 construct: purchased Ambit (DiscoverX) KINOMEscan; Cerep
T28 sequence (Q15831 whole entry): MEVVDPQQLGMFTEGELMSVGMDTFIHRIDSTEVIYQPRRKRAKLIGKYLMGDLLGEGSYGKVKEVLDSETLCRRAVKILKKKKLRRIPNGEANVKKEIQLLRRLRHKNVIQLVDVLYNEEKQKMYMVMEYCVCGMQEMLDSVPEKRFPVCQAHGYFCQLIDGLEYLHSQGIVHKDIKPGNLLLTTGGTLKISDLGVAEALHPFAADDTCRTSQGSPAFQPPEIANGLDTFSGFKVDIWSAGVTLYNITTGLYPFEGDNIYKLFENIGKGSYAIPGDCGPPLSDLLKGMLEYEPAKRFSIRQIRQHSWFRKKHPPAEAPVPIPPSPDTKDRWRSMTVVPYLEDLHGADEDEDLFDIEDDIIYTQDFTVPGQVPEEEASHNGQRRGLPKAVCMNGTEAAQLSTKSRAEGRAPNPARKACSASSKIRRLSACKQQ
How it was run: as §1

[29] = biological target: T29, EPHA8 (Homo sapiens, UniProt P29322)
T29 construct: purchased Ambit (DiscoverX) KINOMEscan; Cerep
How it was run: as §1

[30] = biological target: T30, DLK (Homo sapiens, UniProt Q12852)
T30 construct: purchased Ambit (DiscoverX) KINOMEscan; Cerep
How it was run: as §1

[31] = biological target: T31, LTK (Homo sapiens, UniProt P29376)
T31 construct: purchased Ambit (DiscoverX) KINOMEscan; Cerep
How it was run: as §1

[32] = biological target: T32, CHEK1 (Homo sapiens, UniProt O14757)
T32 construct: purchased Ambit (DiscoverX) KINOMEscan; Cerep
How it was run: as §1

[33] = biological target: T33, SNARK (Homo sapiens, UniProt Q9H093)
T33 construct: purchased Ambit (DiscoverX) KINOMEscan; Cerep
How it was run: as §1

[34] = biological target: T34, OSR1 (Homo sapiens, UniProt O95747)
T34 construct: purchased Ambit (DiscoverX) KINOMEscan; Cerep
How it was run: as §1

Compound `CCCCN1CCN(C(=N)c2cccc(NC(=O)Nc3ccc(S(=O)(=O)NCc4ccc(S(N)(=O)=O)cc4)cc3)c2)CC1` [SC81458, 4-(3-(3-((4-butylpiperazin-1-yl)(imino)methyl)phenyl)ureido)-N-(4-sulfamoylbenzyl) benzenesulfonamide] has a remaining binding at 10 µM [1] of 100%, a remaining binding at 10 µM [2] of 100% and a remaining binding at 10 µM [3] of 100%. It also gave a remaining binding at 10 µM [4] of 92%, a remaining binding at 10 µM [5] of 95% and a remaining binding at 10 µM [6] of 100%. For the same compound, the remaining binding at 10 µM [7] was 87%, the remaining binding at 10 µM [8] was 73% and the remaining binding at 10 µM [9] was 77%. The remaining binding at 10 µM [10] was 81%, the remaining binding at 10 µM [11] was 71% and the remaining binding at 10 µM [12] was 100%. The remaining binding at 10 µM [13] was 98%, the remaining binding at 10 µM [14] was 88% and the remaining binding at 10 µM [15] was 100%. The remaining binding at 10 µM [16] was 84%, the remaining binding at 10 µM [17] was 95% and the remaining binding at 10 µM [18] was 95%. For the same compound, the remaining binding at 10 µM [19] was 100%, the remaining binding at 10 µM [20] was 100% and the remaining binding at 10 µM [21] was 86%. For the same compound, the remaining binding at 10 µM [22] was 64%, the remaining binding at 10 µM [23] was 100% and the remaining binding at 10 µM [24] was 100%. For the same compound, the remaining binding at 10 µM [25] was 80%, the remaining binding at 10 µM [26] was 75% and the remaining binding at 10 µM [27] was 70%. For the same compound, the remaining binding at 10 µM [28] was 88%, the remaining binding at 10 µM [29] was 83% and the remaining binding at 10 µM [30] was 100%. For the same compound, the remaining binding at 10 µM [31] was 100%, the remaining binding at 10 µM [32] was 98% and the remaining binding at 10 µM [33] was 100%. The remaining binding at 10 µM [34] was 100%.

Reference: article PMC5290327, “SC83288 is a clinical development candidate for the treatment of severe malaria” (Nature Communications, 2017)
